{"source": "paper PMC5218480", "about": "(PLoS ONE, 2017)", "test_system": "MV-4-11 cells", "assay": "Gene expression microarray analysis (Affymetrix PrimeView) and GSEA", "type": "cell-based, human", "set-up": "RFU PODN (11730768_x_at) / Fold change /veh PODN (11730768_x_at) / RFU LINC00158 (11744669_a_at) / Fold change /veh LINC00158 (11744669_a_at) / RFU DUSP10 (11751237_a_at) / Fold change /veh DUSP10 (11751237_a_at) / RFU ID3 (11757404_x_at) / Fold change /veh ID3 (11757404_x_at) / RFU PLEKHG5 (11737974_s_at) / Fold change /veh PLEKHG5 (11737974_s_at) / RFU LRRC4B (11730491_at) / Fold change /veh LRRC4B (11730491_at) / RFU GIMAP4 (11747438_a_at) / Fold change /veh GIMAP4 (11747438_a_at) / RFU KRT8 (11758183_x_at) / Fold change /veh KRT8 (11758183_x_at) / RFU CNN1 (11734310_a_at) / Fold change /veh CNN1 (11734310_a_at) / RFU VPS37D (11726825_at) / Fold change /veh VPS37D (11726825_at) / RFU C10orf10 (11716522_x_at) / Fold change /veh C10orf10 (11716522_x_at) / RFU KIR2DL2 /// KIR2DL4 /// KIR2DL5A /// KIR2DL5B /// KIR2DS1 /// KIR2DS2 /// KIR2DS3 /// KIR2DS4 /// KIR3DL3 /// KIR3DL3 /// KIR3DS1 (11738374_at) / Fold change /veh KIR2DL2 /// KIR2DL4 /// KIR2DL5A /// KIR2DL5B /// KIR2DS1 /// KIR2DS2 /// KIR2DS3 /// KIR2DS4 /// KIR3DL3 /// KIR3DL3 /// KIR3DS1 (11738374_at) / RFU C1QL1 (11718748_at) / Fold change /veh C1QL1 (11718748_at) / RFU TMPRSS4 (11747572_a_at) / Fold change /veh TMPRSS4 (11747572_a_at) / RFU HAMP (11756126_x_at) / Fold change /veh HAMP (11756126_x_at) / RFU RNFT2 (11725882_a_at) / Fold change /veh RNFT2 (11725882_a_at) / RFU NR4A2 (11747474_a_at) / Fold change /veh NR4A2 (11747474_a_at) / RFU ABCC12 (11746883_a_at) / Fold change /veh ABCC12 (11746883_a_at) / RFU TMEM136 (11760407_x_at) / Fold change /veh TMEM136 (11760407_x_at) / RFU CLDN22 /// WWC2 (11732394_at) / Fold change /veh CLDN22 /// WWC2 (11732394_at) / RFU HLA-DPB1 (11760878_x_at) / Fold change /veh HLA-DPB1 (11760878_x_at) / RFU SPINT1 (11716480_a_at) / Fold change /veh SPINT1 (11716480_a_at) / RFU GAP43 (11754022_s_at) / Fold change /veh GAP43 (11754022_s_at) / RFU A4GNT (11735810_at) / Fold change /veh A4GNT (11735810_at) / RFU PRB3 (11715151_x_at) / Fold change /veh PRB3 (11715151_x_at) / RFU TUBB4B (11761932_at) / Fold change /veh TUBB4B (11761932_at) / RFU CAPN14 (11732068_a_at) / Fold change /veh CAPN14 (11732068_a_at) / RFU TMCC2 (11721928_a_at) / Fold change /veh TMCC2 (11721928_a_at) / RFU IRGQ (11745062_a_at) / Fold change /veh IRGQ (11745062_a_at) / RFU FAM174B (11720279_a_at) / Fold change /veh FAM174B (11720279_a_at) / RFU TMPRSS4 (11748680_a_at) / Fold change /veh TMPRSS4 (11748680_a_at) / RFU FAM212B (11763350_a_at) / Fold change /veh FAM212B (11763350_a_at) / RFU PLEKHG5 (11743358_a_at) / Fold change /veh PLEKHG5 (11743358_a_at) / RFU ZSCAN30 (11745921_a_at) / Fold change /veh ZSCAN30 (11745921_a_at) / RFU CMKLR1 (11741424_a_at) / Fold change /veh CMKLR1 (11741424_a_at) / RFU LOC101060620 /// MAPK8IP1 (11723275_at) / Fold change /veh LOC101060620 /// MAPK8IP1 (11723275_at) / RFU SPTSSB (11747773_x_at) / Fold change /veh SPTSSB (11747773_x_at) / RFU PRSS12 (11739890_at) / Fold change /veh PRSS12 (11739890_at) / RFU BIN1 (11741810_x_at) / Fold change /veh BIN1 (11741810_x_at) / RFU WNT11 (11732464_a_at) / Fold change /veh WNT11 (11732464_a_at) / RFU C10orf10 (11716521_a_at) / Fold change /veh C10orf10 (11716521_a_at) / RFU C5orf56 (11738089_at) / Fold change /veh C5orf56 (11738089_at) / RFU CYB561 (11721691_x_at) / Fold change /veh CYB561 (11721691_x_at) / RFU ANKRD19P (11752326_a_at) / Fold change /veh ANKRD19P (11752326_a_at) / RFU OR2T12 /// OR2T33 /// OR2T8 (11738714_s_at) / Fold change /veh OR2T12 /// OR2T33 /// OR2T8 (11738714_s_at) / RFU VCAN (11748164_a_at) / Fold change /veh VCAN (11748164_a_at) / RFU JSRP1 (11732532_at) / Fold change /veh JSRP1 (11732532_at) / RFU KRTAP10-11 (11738290_x_at) / Fold change /veh KRTAP10-11 (11738290_x_at) / RFU MYO3A (11730013_a_at) / Fold change /veh MYO3A (11730013_a_at) / RFU EBF3 (11725865_a_at) / Fold change /veh EBF3 (11725865_a_at) / RFU CAMK2N1 (11719241_x_at) / Fold change /veh CAMK2N1 (11719241_x_at) / RFU C5orf56 (11738088_a_at) / Fold change /veh C5orf56 (11738088_a_at) / RFU OLFML3 (11715873_a_at) / Fold change /veh OLFML3 (11715873_a_at) / RFU LOC100653217 /// NTM (11731650_a_at) / Fold change /veh LOC100653217 /// NTM (11731650_a_at) / RFU MAPK11 (11762145_a_at) / Fold change /veh MAPK11 (11762145_a_at) / RFU FIZ1 (11724087_x_at) / Fold change /veh FIZ1 (11724087_x_at) / RFU OASL (11726364_x_at) / Fold change /veh OASL (11726364_x_at) / RFU SOX15 (11748057_x_at) / Fold change /veh SOX15 (11748057_x_at) / RFU CD79A (11719716_a_at) / Fold change /veh CD79A (11719716_a_at) / RFU HIST1H1D (11736915_at) / Fold change /veh HIST1H1D (11736915_at) / RFU CASKIN2 (11723855_a_at) / Fold change /veh CASKIN2 (11723855_a_at) / RFU LOC730098 (11760151_x_at) / Fold change /veh LOC730098 (11760151_x_at) / RFU OR4N2 (11742367_at) / Fold change /veh OR4N2 (11742367_at) / RFU PRRT2 (11749266_a_at) / Fold change /veh PRRT2 (11749266_a_at) / RFU SNX32 (11753110_a_at) / Fold change /veh SNX32 (11753110_a_at) / RFU CDHR5 (11726645_a_at) / Fold change /veh CDHR5 (11726645_a_at) / RFU RCAN1 (11760418_a_at) / Fold change /veh RCAN1 (11760418_a_at) / RFU FAM167A (11723789_a_at) / Fold change /veh FAM167A (11723789_a_at) / RFU FAM26E (11764081_at) / Fold change /veh FAM26E (11764081_at) / RFU ISYNA1 (11749810_s_at) / Fold change /veh ISYNA1 (11749810_s_at) / RFU ACY1 (11761880_at) / Fold change /veh ACY1 (11761880_at) / RFU 11764098_at / Fold change /veh 11764098_at / RFU SAMD14 (11745864_x_at) / Fold change /veh SAMD14 (11745864_x_at) / RFU NPB (11741838_a_at) / Fold change /veh NPB (11741838_a_at) / RFU TMPRSS6 (11731388_a_at) / Fold change /veh TMPRSS6 (11731388_a_at) / RFU KRTAP10-2 (11738614_at) / Fold change /veh KRTAP10-2 (11738614_at) / RFU ARHGAP8 /// PRR5-ARHGAP8 (11727945_x_at) / Fold change /veh ARHGAP8 /// PRR5-ARHGAP8 (11727945_x_at) / RFU KRTAP5-7 /// NADSYN1 (11734609_at) / Fold change /veh KRTAP5-7 /// NADSYN1 (11734609_at) / RFU RASL12 (11751679_a_at) / Fold change /veh RASL12 (11751679_a_at) / RFU CDKN2B (11736163_a_at) / Fold change /veh CDKN2B (11736163_a_at) / RFU PRF1 (11729649_at) / Fold change /veh PRF1 (11729649_at) / RFU, ZNF638 /// ZNF638-IT1 / Fold change vs veh, ZNF638 /// ZNF638-IT1 / RFU, PANK3 / Fold change vs veh, PANK3 / RFU, SH3YL1 / Fold change vs veh, SH3YL1 / RFU, ZEB2 / Fold change vs veh, ZEB2 / RFU, NRIP1 / Fold change vs veh, NRIP1 / RFU, PTTG1IP / Fold change vs veh, PTTG1IP / RFU, CAPN2 / Fold change vs veh, CAPN2 / RFU, MED14 / Fold change vs veh, MED14 / RFU, SNORA58 / Fold change vs veh, SNORA58 / RFU, C1orf63 / Fold change vs veh, C1orf63 / RFU, LRRFIP1 / Fold change vs veh, LRRFIP1 / RFU, NDUFAF7 / Fold change vs veh, NDUFAF7 / RFU, SLC12A2 / Fold change vs veh, SLC12A2 / RFU, IBTK / Fold change vs veh, IBTK / RFU, ESF1 / Fold change vs veh, ESF1 / Fold change vs veh, TMEM50B / RFU, TAOK1 / Fold change vs veh, TAOK1 / RFU, ACBD3 / Fold change vs veh, ACBD3 / RFU, TMA16 / Fold change vs veh, TMA16 / RFU, RWDD3 / Fold change vs veh, RWDD3 / RFU, BCAT1 / Fold change vs veh, BCAT1 / RFU, EDEM3 / Fold change vs veh, EDEM3 / RFU, TMEM33 / Fold change vs veh, TMEM33 / RFU, WDR75 / Fold change vs veh, WDR75 / RFU, AHCTF1 / Fold change vs veh, AHCTF1 / RFU, TFRC / Fold change vs veh, TFRC / RFU, ZDHHC17 / Fold change vs veh, ZDHHC17 / RFU, NOM1 / Fold change vs veh, NOM1 / RFU, ARL8B / Fold change vs veh, ARL8B / RFU, ZBTB11 / Fold change vs veh, ZBTB11 / RFU, TAMM41 / Fold change vs veh, TAMM41 / RFU, KIAA1704 /// LOC100996395 / Fold change vs veh, KIAA1704 /// LOC100996395 / RFU, ING1 / Fold change vs veh, ING1 / RFU, TRMT61B / Fold change vs veh, TRMT61B / RFU, FUBP3 / Fold change vs veh, FUBP3 / RFU, TP53 / Fold change vs veh, TP53 / RFU, TNKS2 / Fold change vs veh, TNKS2 / RFU, ZFP14 / Fold change vs veh, ZFP14 / RFU, ACTR2 / Fold change vs veh, ACTR2 / RFU, PPP3R1 / Fold change vs veh, PPP3R1 / RFU, PIK3R1 / Fold change vs veh, PIK3R1 / RFU, HNRNPA1 / Fold change vs veh, HNRNPA1 / RFU, RNF170 / Fold change vs veh, RNF170 / RFU, ZNF28 / Fold change vs veh, ZNF28 / RFU, RNGTT / Fold change vs veh, RNGTT / RFU, OGT / Fold change vs veh, OGT / RFU, BRD1 / Fold change vs veh, BRD1 / RFU, MARS / Fold change vs veh, MARS / RFU, ZNF655 / Fold change vs veh, ZNF655 / RFU, FAHD1 / Fold change vs veh, FAHD1 / RFU, BDP1 / Fold change vs veh, BDP1 / RFU, LRRCC1 / Fold change vs veh, LRRCC1 / RFU, ARID1A / Fold change vs veh, ARID1A / RFU, ZNF146 / Fold change vs veh, ZNF146 / RFU, ZNF330 / Fold change vs veh, ZNF330 / RFU, GPN3 / Fold change vs veh, GPN3 / RFU, C9orf123 / Fold change vs veh, C9orf123 / RFU, N4BP2L2 / Fold change vs veh, N4BP2L2 / RFU, ARFIP1 / Fold change vs veh, ARFIP1 / RFU, FAM179B / Fold change vs veh, FAM179B / RFU, BCL10 / Fold change vs veh, BCL10 / RFU, UHRF1BP1L / Fold change vs veh, UHRF1BP1L / RFU, BET1 / Fold change vs veh, BET1 / RFU, CNOT2 / Fold change vs veh, CNOT2 / RFU, ZNF268 / Fold change vs veh, ZNF268 / Fold change vs veh, ZNF507 / RFU, DGCR2 / Fold change vs veh, DGCR2 / RFU, WDSUB1 / Fold change vs veh, WDSUB1 / Fold change vs veh, HSP90B1 /// MIR3652 / RFU, ADSS / Fold change vs veh, ADSS / RFU, GK / Fold change vs veh, GK / RFU, ZNF148 / Fold change vs veh, ZNF148 / RFU, TAF9 / Fold change vs veh, TAF9 / RFU, SLC1A5 / Fold change vs veh, SLC1A5 / RFU, SLMO2 / Fold change vs veh, SLMO2 / RFU, ABCC4 / Fold change vs veh, ABCC4 / RFU, LOC101060439 /// RAP1B / Fold change vs veh, LOC101060439 /// RAP1B / RFU, RFX7 / Fold change vs veh, RFX7 / RFU, GTPBP10 / Fold change vs veh, GTPBP10 / RFU, CNEP1R1 / Fold change vs veh, CNEP1R1 / RFU, BIVM-ERCC5 /// ERCC5 / Fold change vs veh, BIVM-ERCC5 /// ERCC5 / RFU, ILF3 / Fold change vs veh, ILF3 / RFU 11762660_at / Fold change /veh 11762660_at / RFU VCAN (11757783_s_at) / Fold change /veh VCAN (11757783_s_at) / RFU DDX43 (11728927_at) / Fold change /veh DDX43 (11728927_at) / RFU KRT8 (11758188_x_at) / Fold change /veh KRT8 (11758188_x_at) / RFU NKD1 (11759106_at) / Fold change /veh NKD1 (11759106_at) / RFU SRD5A1 (11742802_a_at) / Fold change /veh SRD5A1 (11742802_a_at) / RFU TPSAB1 /// TPSB2 (11721975_s_at) / Fold change /veh TPSAB1 /// TPSB2 (11721975_s_at) / RFU GSTM3 (11746129_a_at) / Fold change /veh GSTM3 (11746129_a_at) / RFU IL23R (11737362_x_at) / Fold change /veh IL23R (11737362_x_at) / RFU TMEM51 (11727254_a_at) / Fold change /veh TMEM51 (11727254_a_at) / RFU PIWIL2 (11732686_x_at) / Fold change /veh PIWIL2 (11732686_x_at) / RFU ORM1 (11744905_x_at) / Fold change /veh ORM1 (11744905_x_at) / RFU CCDC152 (11743942_at) / Fold change /veh CCDC152 (11743942_at) / RFU ECM1 (11717891_a_at) / Fold change /veh ECM1 (11717891_a_at) / RFU IL23R (11748794_a_at) / Fold change /veh IL23R (11748794_a_at) / RFU TNFAIP8L3 (11732012_x_at) / Fold change /veh TNFAIP8L3 (11732012_x_at) / RFU MBOAT4 (11741988_at) / Fold change /veh MBOAT4 (11741988_at) / RFU 11764193_at / Fold change /veh 11764193_at / RFU TMEM53 (11763286_at) / Fold change /veh TMEM53 (11763286_at) / RFU MAGEB2 (11727129_at) / Fold change /veh MAGEB2 (11727129_at) / RFU TMEM200A (11744735_a_at) / Fold change /veh TMEM200A (11744735_a_at) / RFU CCDC152 (11751479_a_at) / Fold change /veh CCDC152 (11751479_a_at) / RFU FAM211A (11726209_a_at) / Fold change /veh FAM211A (11726209_a_at) / RFU RGS16 (11746705_a_at) / Fold change /veh RGS16 (11746705_a_at) / RFU VCAN (11755009_s_at) / Fold change /veh VCAN (11755009_s_at) / RFU RHOB (11743442_s_at) / Fold change /veh RHOB (11743442_s_at) / RFU RGS16 (11720943_a_at) / Fold change /veh RGS16 (11720943_a_at) / RFU RGS16 (11720944_at) / Fold change /veh RGS16 (11720944_at) / RFU, VPS4B / Fold change vs veh, VPS4B / RFU, CREB1 / Fold change vs veh, CREB1 / RFU, DNAJC13 / Fold change vs veh, DNAJC13 / RFU, GNAQ / Fold change vs veh, GNAQ / RFU, CDK5R1 / Fold change vs veh, CDK5R1 / RFU, ZRANB3 / Fold change vs veh, ZRANB3 / RFU, CUL4A / Fold change vs veh, CUL4A / RFU, CCNY / Fold change vs veh, CCNY / RFU, UFL1 / Fold change vs veh, UFL1 / RFU, COG3 / Fold change vs veh, COG3 / RFU, DIAPH2 / Fold change vs veh, DIAPH2 / RFU, SKA2 / Fold change vs veh, SKA2 / RFU, AFF3 / Fold change vs veh, AFF3 / RFU, LMF1 / Fold change vs veh, LMF1 / RFU, IPO11 / Fold change vs veh, IPO11 / RFU, DFFB / Fold change vs veh, DFFB / RFU, FOXP1 / Fold change vs veh, FOXP1 / RFU, CARD8 / Fold change vs veh, CARD8 / RFU, STRN3 / Fold change vs veh, STRN3 / RFU, ADK / Fold change vs veh, ADK / RFU, RASSF2 / Fold change vs veh, RASSF2 / RFU, WIPF1 / Fold change vs veh, WIPF1 / RFU, LARP1B / Fold change vs veh, LARP1B / RFU, RASA1 / Fold change vs veh, RASA1 / RFU, RB1 / Fold change vs veh, RB1 / RFU, PPFIA1 / Fold change vs veh, PPFIA1 / RFU, MAT2A / Fold change vs veh, MAT2A / RFU, CCT5 / Fold change vs veh, CCT5 / RFU, WDR92 / Fold change vs veh, WDR92 / RFU, CUX1 / Fold change vs veh, CUX1 / RFU, TTC7A / Fold change vs veh, TTC7A / RFU, TMEM135 / Fold change vs veh, TMEM135 / RFU, DEPTOR / Fold change vs veh, DEPTOR / RFU, CPM / Fold change vs veh, CPM / RFU, DNAJB6 / Fold change vs veh, DNAJB6 / RFU, CACNA2D3 / Fold change vs veh, CACNA2D3 / RFU, DTX4 / Fold change vs veh, DTX4 / RFU, TFCP2 / Fold change vs veh, TFCP2 / RFU, GMCL1 /// GMCL1P1 / Fold change vs veh, GMCL1 /// GMCL1P1 / RFU, AEBP2 / Fold change vs veh, AEBP2 / RFU, SNHG1 /// SNORD22 /// SNORD25 /// SNORD26 /// SNORD27 /// SNORD28 /// SNORD29 /// SNORD31 / Fold change vs veh, SNHG1 /// SNORD22 /// SNORD25 /// SNORD26 /// SNORD27 /// SNORD28 /// SNORD29 /// SNORD31 / Fold change (Aza/veh), C12orf56 (ProbeSet 11735607_a_at) / Fold change (ACY-1035/veh), C12orf56 (ProbeSet 11735607_a_at) / Fold change (Aza/veh), FGFR1OP (ProbeSet 11751329_s_at) / Fold change (ACY-1035/veh), FGFR1OP (ProbeSet 11751329_s_at) / Fold change (Aza/veh), VPS36 (ProbeSet 11739960_a_at) / Fold change (ACY-1035/veh), VPS36 (ProbeSet 11739960_a_at) / RFU SYPL1 (11715823_x_at) / Fold change /veh SYPL1 (11715823_x_at) / RFU IGFBP7 (11715501_s_at) / Fold change /veh IGFBP7 (11715501_s_at) / RFU REEP3 (11722064_at) / Fold change /veh REEP3 (11722064_at) / RFU IGLL1 (11728026_x_at) / Fold change /veh IGLL1 (11728026_x_at): dose or concentration left out as unconfirmed", "conditions": "MV-4-11 cells, 48 hours"}
{"smiles": "Nc1ccc(-c2cccs2)cc1NC(=O)c1ccc2c(c1)cc(C1CC1)n2CCN1CCOCC1", "note": "[ACY-1035]", "values": [{"measurement": "RFU C5orf56 (11738089_at)", "result": 10.10, "unit": "RFU"}]}
